Experimental data as given in US12588678B2, “Oxazoline compound, synthesis method therefor and application thereof” (NANKAI UNIVERSITY, priority 2019, dated 2026).

What was measured:
[1] = tested on: Tetranychus cinnabarinus mite eggs; test: Activity against mite eggs, dipping method on bean seedling leaves; type: in vivo; conditions: Tetranychus cinnabarinus, 96 h, checked after 4 days; for mortality at 1 µg/mL: read-out: mortality of mite eggs (%), 1 mg/L; for mortality at 10 µg/mL: read-out: mortality of mite eggs (%), 10 mg/L; for mortality at 100 µg/mL: read-out: mortality of mite eggs (%), 100 mg/L; for mortality at 200 µg/mL: read-out: mortality of mite eggs (%), 200 mg/L; for mortality at 0.01 µg/mL: read-out: mortality of mite eggs (%), 0.01 mg/L; for mortality at 0.05 µg/mL: read-out: mortality of mite eggs (%), 0.05 mg/L; for mortality at 0.1 µg/mL: read-out: mortality of mite eggs (%), 0.1 mg/L
Source text: (§1) The assay examples are used to illustrate the acaricidal activity against Tetranychus cinnabarinus (mortality of mite larvae and mortality of mite eggs) of the compounds having the structure represented by formula (I), and the results are shown in tables 1 to 9, where mortality of mite larvae % =(number of dead mite larvae applied/total number of mite larvae applied)×100, and mortality of mite eggs %= (number of dead mite eggs applied/total number of mite eggs applied)×100.
Tetranychus cinnabarinus bred indoors on bean seedlings was used as a test subject by the dipping method. Move female adult mites onto the newly grown complete bean seedling leaves with two leaves, cut off the bean seedlings, place the bean seedlings in a greenhouse with illumination at 25° C. for laying eggs for 24 hours, then remove adult mites and keep mite eggs. After continuously culturing in the greenhouse for one day, completely soak the bean seedling leaves containing the acarid eggs into the prepared sample solution to be tested for 5-6 seconds by using tweezers, slightly throw off residual liquid, put the bean seedling leaves back to the culture cup, continuously culture for 4 days and then check the result. One of the plants was immersed in a solution containing no sample to be tested and the remaining additives were identical to the sample solution as a blank control. Each compound was replicated three times.

[2] = tested on: Tetranychus cinnabarinus mite larvae; test: Larvicidal activity test, dipping method on bean seedling leaves; type: in vivo; conditions: for mortality at 1 µg/mL / mortality at 10 µg/mL / mortality at 100 µg/mL / mortality at 200 µg/mL / mortality at 0.01 µg/mL / mortality at 0.05 µg/mL / mortality at 0.1 µg/mL: Tetranychus cinnabarinus, 96 h, checked after 4 days; for mortality at 1 µg/mL: read-out: mortality of mite larvae (%), 1 mg/L; for mortality at 10 µg/mL: read-out: mortality of mite larvae (%), 10 mg/L; for mortality at 100 µg/mL: read-out: mortality of mite larvae (%), 100 mg/L; for mortality at 200 µg/mL: read-out: mortality of mite larvae (%), 200 mg/L; for acaricidal activity compared with etoxazole: Tetranychus cinnabarinus eggs and larvae, etoxazole as reference; for mortality at 0.01 µg/mL: read-out: mortality of mite larvae (%), 0.01 mg/L; for mortality at 0.05 µg/mL: read-out: mortality of mite larvae (%), 0.05 mg/L; for mortality at 0.1 µg/mL: read-out: mortality of mite larvae (%), 0.1 mg/L
Source text: as §1
Tetranychus cinnabarinus bred indoors on bean seedlings was used as a test subject by the dipping method. Move adult mites onto the newly grown complete bean seedling leaves with two leaves, cut off the bean seedlings, place the bean seedlings in a greenhouse with illumination at 25° C. for laying eggs for 24 hours, then remove adult mites and keep mite eggs. And continuously culture in the greenhouse for 5 days until mite eggs hatch into mite larvae (ensuring that the number of the mites on each tested leaf is not less than 60).
Completely immerse the bean seedling leaves containing the mite larvae into the sample solution to be detected with Tween at the prepared concentration for 5-6 seconds by using tweezers, slightly throw off residual liquid, put the bean seedling leaves back to the culture cup, continuously culture for 4 days and check the result. One of the plants was immersed in a solution containing no sample to be tested and the remaining additives were identical to the sample solution as a blank control. Each compound was replicated three times.

Fc1cccc(F)c1C1=NC(c2ccc(CN3CCc4ccccc4C3)cc2)CO1 (stereo not shown) [Compound R1-13]
mortality at 1 µg/mL [1]: 60%
mortality at 10 µg/mL [1]: 90%
mortality at 100 µg/mL [1]: 100%
mortality at 200 µg/mL [1]: 100%
mortality at 1 µg/mL [2]: 40%
mortality at 10 µg/mL [2]: 70%
mortality at 100 µg/mL [2]: 88%
mortality at 200 µg/mL [2]: 100%

Fc1cccc(F)c1C1=NC(c2ccc(CN3CCc4ccccc43)cc2)CO1 (stereo not shown) [Compound R1-14]
mortality at 1 µg/mL [1]: 40%
mortality at 10 µg/mL [1]: 70%
mortality at 100 µg/mL [1]: 95%
mortality at 200 µg/mL [1]: 100%
mortality at 1 µg/mL [2]: 30%
mortality at 10 µg/mL [2]: 70%
mortality at 100 µg/mL [2]: 95%
mortality at 200 µg/mL [2]: 100%

Fc1cccc(F)c1C1=NC(c2ccc(Cn3ccc4ccccc43)cc2)CO1 (stereo not shown) [Compound R1-15]
mortality at 0.01 µg/mL [1]: 35%
mortality at 0.05 µg/mL [1]: 65%
mortality at 0.1 µg/mL [1]: 80%
mortality at 1 µg/mL [1]: 90%
mortality at 10 µg/mL [1]: 100%
mortality at 100 µg/mL [1]: 100%
mortality at 200 µg/mL [1]: 100%
acaricidal activity compared with etoxazole [2]: higher acaricidal activity than etoxazole
mortality at 0.01 µg/mL [2]: 35%
mortality at 0.05 µg/mL [2]: 50%
mortality at 0.1 µg/mL [2]: 65%
mortality at 1 µg/mL [2]: 80%
mortality at 10 µg/mL [2]: 90%
mortality at 100 µg/mL [2]: 100%
mortality at 200 µg/mL [2]: 100%

Cc1ccc2c(ccn2Cc2ccc(C3COC(c4c(F)cccc4F)=N3)cc2)c1 (stereo not shown) [Compound R1-16]
mortality at 1 µg/mL [1]: 50%
mortality at 10 µg/mL [1]: 70%
mortality at 100 µg/mL [1]: 100%
mortality at 200 µg/mL [1]: 100%
mortality at 1 µg/mL [2]: 50%
mortality at 10 µg/mL [2]: 65%
mortality at 100 µg/mL [2]: 100%
mortality at 200 µg/mL [2]: 100%

Cc1ccc2ccn(Cc3ccc(C4COC(c5c(F)cccc5F)=N4)cc3)c2c1 (stereo not shown) [Compound R1-17]
mortality at 1 µg/mL [1]: 40%
mortality at 10 µg/mL [1]: 65%
mortality at 100 µg/mL [1]: 100%
mortality at 200 µg/mL [1]: 100%
mortality at 1 µg/mL [2]: 20%
mortality at 10 µg/mL [2]: 40%
mortality at 100 µg/mL [2]: 100%
mortality at 200 µg/mL [2]: 100%

Cc1cccc2ccn(Cc3ccc(C4COC(c5c(F)cccc5F)=N4)cc3)c12 (stereo not shown) [Compound R1-18]
mortality at 0.01 µg/mL [1]: 30%
mortality at 0.05 µg/mL [1]: 55%
mortality at 0.1 µg/mL [1]: 75%
mortality at 1 µg/mL [1]: 80%
mortality at 10 µg/mL [1]: 100%
mortality at 100 µg/mL [1]: 100%
mortality at 200 µg/mL [1]: 100%
acaricidal activity compared with etoxazole [2]: higher acaricidal activity than etoxazole
mortality at 0.01 µg/mL [2]: 45%
mortality at 0.05 µg/mL [2]: 55%
mortality at 0.1 µg/mL [2]: 75%
mortality at 1 µg/mL [2]: 85%
mortality at 10 µg/mL [2]: 100%
mortality at 100 µg/mL [2]: 100%
mortality at 200 µg/mL [2]: 100%
larvicidal activity, times that of etoxazole ([2]; relative to etoxazole): 5 times

Cc1cn(Cc2ccc(C3COC(c4ccccc4F)=N3)cc2)c2ccccc12 (stereo not shown) [Compound R1-19]
acaricidal activity compared with etoxazole [2]: higher acaricidal activity than etoxazole

Fc1cccc(F)c1C1=NC(c2ccc(Cn3ccc4c(F)cccc43)cc2)CO1 (stereo not shown) [Compound R1-20]
mortality at 1 µg/mL [1]: 60%
mortality at 10 µg/mL [1]: 80%
mortality at 100 µg/mL [1]: 100%
mortality at 200 µg/mL [1]: 100%
mortality at 1 µg/mL [2]: 45%
mortality at 10 µg/mL [2]: 70%
mortality at 100 µg/mL [2]: 100%
mortality at 200 µg/mL [2]: 100%

Fc1ccc2ccn(Cc3ccc(C4COC(c5c(F)cccc5F)=N4)cc3)c2c1 (stereo not shown) [Compound R1-21]
mortality at 1 µg/mL [1]: 30%
mortality at 10 µg/mL [1]: 70%
mortality at 100 µg/mL [1]: 100%
mortality at 200 µg/mL [1]: 100%
mortality at 10 µg/mL [2]: 60%
mortality at 100 µg/mL [2]: 100%
mortality at 200 µg/mL [2]: 100%

Fc1ccc2c(ccn2Cc2ccc(C3COC(c4c(F)cccc4F)=N3)cc2)c1 (stereo not shown) [Compound R1-22]
mortality at 0.05 µg/mL [1]: 45%
mortality at 0.1 µg/mL [1]: 75%
mortality at 1 µg/mL [1]: 85%
mortality at 10 µg/mL [1]: 90%
mortality at 100 µg/mL [1]: 98%
mortality at 200 µg/mL [1]: 100%
acaricidal activity compared with etoxazole [2]: higher acaricidal activity than etoxazole
mortality at 0.05 µg/mL [2]: 45%
mortality at 0.1 µg/mL [2]: 70%
mortality at 1 µg/mL [2]: 80%
mortality at 10 µg/mL [2]: 85%
mortality at 100 µg/mL [2]: 100%
mortality at 200 µg/mL [2]: 100%

Fc1cccc(F)c1C1=NC(c2ccc(Cn3ccc4cc(Cl)ccc43)cc2)CO1 (stereo not shown) [Compound R1-23]
mortality at 1 µg/mL [1]: 60%
mortality at 10 µg/mL [1]: 75%
mortality at 100 µg/mL [1]: 100%
mortality at 200 µg/mL [1]: 100%
mortality at 1 µg/mL [2]: 50%
mortality at 10 µg/mL [2]: 80%
mortality at 100 µg/mL [2]: 100%
mortality at 200 µg/mL [2]: 100%
